# Values of other authors, collected in patent US6903136B2, “Food supplements containing 4-hydroxyisoleucine and creatine” (Experimental and Applied Sciences, Inc., priority 2002, dated 2005).
# Key:
# [1] = test system: insulinotropic activity
# [2] = test system: secretion of insulin; details: in vitro
# [3] = test system: insulinotropic activity; details: normal and diabetic rats; intravenous and oral delivery
SMILES,activity as an insulinotropic agent [1],"activity as an insulinotropic agent relative to leucine, isoleucine, or homoserine ([1]; fold more active than leucine, isoleucine, or homoserine)",effect on secretion of insulin ([2]; normal blood glucose levels),insulinotropic activity ([2]; supranormal glucose levels),insulinotropic activity in vivo [3]
"CC(O)C(C)C(N)C(=O)O (single isomer, unassigned) [(2R, 3R, 4S) isomer]",inactive,,,,
"C[C@@H]([C@H](C)O)[C@H](N)C(=O)O (single isomer, unassigned) [(2S, 3R, 4S) stereoisomer of 4OH-Ile]",active,at least 15 ×,,,
"CC(O)[C@H](C)[C@H](N)C(=O)O (stereo partly shown) [Example 4OH-Ile, 4-Hydroxyisoleucine]",,,does not affect the secretion of insulin,strong insulinotropic activity,verified the insulinotropic activity in vivo
CC1OC(=O)C(N)C1C (stereo not shown) [lactone form of 4OH-Ile],not active,,,,
